# Test results published in ChEMBL document CHEMBL1649177, “Further identification of CTX-M-2 extended-spectrum beta-lactamase in Pseudomonas aeruginosa” (2009).
# Active and inactive are the calls of the source. No cut-off for these calls is given here.
# What was measured:
# [1] = tested on: Pseudomonas aeruginosa; experiment: Antimicrobial activity against extended spectrum beta-lactamase CTX-M-2-producing Pseudomonas aeruginosa isolate P6208; assay type: functional, organism-based
# [2] = tested on: Pseudomonas aeruginosa; experiment: Antimicrobial activity against extended spectrum beta-lactamase CTX-M-2-producing Pseudomonas aeruginosa isolate P6208 by Etest; assay type: functional
Molecule,Activity [1],MIC [2] [µg/mL]
NCC[C@H](O)C(=O)N[C@@H]1C[C@H](N)[C@@H](O[C@H]2O[C@H](CN)[C@@H](O)[C@H](O)[C@H]2O)[C@H](O)[C@H]1O[C@H]1O[C@H](CO)[C@@H](O)[C@H](N)[C@H]1O,Active,
NC[C@H]1O[C@H](O[C@H]2[C@H](O)[C@@H](O[C@H]3O[C@H](CO)[C@@H](O)[C@H](N)[C@H]3O)[C@H](N)C[C@@H]2N)[C@H](N)C[C@@H]1O,Active,
CO/N=C(\C(=O)N[C@@H]1C(=O)N2C(C(=O)[O-])=C(C[N+]3(C)CCCC3)CS[C@H]12)c1csc(N)n1 [CEFEPIME],,> 256
CO/N=C(\C(=O)N[C@@H]1C(=O)N2C(C(=O)O)=C(COC(C)=O)CS[C@H]12)c1csc(N)n1 [CEFOTAXIME],,> 32
CC(C)(O/N=C(\C(=O)N[C@@H]1C(=O)N2C(C(=O)[O-])=C(C[n+]3ccccc3)CS[C@H]12)c1csc(N)n1)C(=O)O [CEFTAZIDIME],,2
C[C@@H](O)[C@H]1C(=O)N2C(C(=O)O)=C(SCCNC=N)C[C@H]12 [IMIPENEM ANHYDROUS],,1
COLISTIN,Active,
GENTAMICIN,Active,
